The values that follow come from patent publication US9790229B2, “Bruton's tyrosine kinase inhibitors” (priority 2009, dated 2017).

The assay has as its target BTK (Homo sapiens (Human), UniProt Q06187). The assay can be described thus: In vitro BTK kinase assay: BTK-POLYGAT-LS ASSAY.
The mark [1] stands for this setting: read-out: IC50 (10 uM ATP), 10 uM ATP, in vitro Btk kinase assay, Example 41.

Like-named read-outs stand apart in the source and are kept apart here. Bounds are passed on as bounds.

Chain of BTK (Q06187 whole entry): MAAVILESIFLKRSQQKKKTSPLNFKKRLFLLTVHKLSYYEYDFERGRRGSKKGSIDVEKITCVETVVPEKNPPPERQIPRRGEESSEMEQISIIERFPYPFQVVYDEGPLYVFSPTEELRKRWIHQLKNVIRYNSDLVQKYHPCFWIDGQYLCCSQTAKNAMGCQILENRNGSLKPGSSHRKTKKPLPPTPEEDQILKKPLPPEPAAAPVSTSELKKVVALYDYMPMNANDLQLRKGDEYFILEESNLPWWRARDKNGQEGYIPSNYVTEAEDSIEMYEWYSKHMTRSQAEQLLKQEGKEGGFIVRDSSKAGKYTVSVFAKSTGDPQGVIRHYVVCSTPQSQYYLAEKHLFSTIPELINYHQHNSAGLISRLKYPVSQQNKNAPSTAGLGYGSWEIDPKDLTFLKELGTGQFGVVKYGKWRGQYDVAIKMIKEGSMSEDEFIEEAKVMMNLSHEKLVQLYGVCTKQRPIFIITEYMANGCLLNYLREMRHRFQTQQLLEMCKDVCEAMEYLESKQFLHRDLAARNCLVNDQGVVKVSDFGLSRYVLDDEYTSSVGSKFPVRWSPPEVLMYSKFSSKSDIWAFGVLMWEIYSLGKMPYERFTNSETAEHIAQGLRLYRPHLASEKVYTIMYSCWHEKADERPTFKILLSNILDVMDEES

For `O=C(Nc1csc(C2CCCN(c3ncnc4[nH]ccc34)C2)n1)Nc1c(F)cc(F)cc1N1CCCC1` (stereo not shown) [compound 111, 1-(2-(1-(7H-pyrrolo[2,3-d]pyrimidin-4-yl)piperidin-3-yl)thiazol-4-yl)-3-(2,4-difluoro-6-(pyrrolidin-1-yl)phenyl)urea], the IC50 under setting [1] was below 100 nM. On the same count and under the same terms, the figure for `O=C(Nc1csc(C2CCCN(c3ncnc4[nH]ncc34)C2)n1)Nc1c(F)cc(F)cc1N1CCCC1` (stereo not shown) [compound 112, 1-(2-(1-(1H-pyrazolo[3,4-d]pyrimidin-4-yl)piperidin-3-yl)thiazol-4-yl)-3-(2,4-difluoro-6-(pyrrolidin-1-yl)phenyl)urea] is below 100 nM; for `N#Cc1c(N)ncnc1N1CCCC(c2nc(NC(=O)Nc3c(F)cc(F)cc3N3CCCC3)cs2)C1` (stereo not shown) [compound 113, 1-(2-(1-(6-amino-5-cyanopyrimidin-4-yl)piperidin-3-yl)thiazol-4-yl)-3-(2,4-difluoro-6-(pyrrolidin-1-yl)phenyl)urea] it is below 100 nM.

Molecule `Nc1ncnc(N2CCCC(c3nc(NC(=O)Nc4c(F)cc(F)cc4N4CCCC4)cs3)C2)c1Cl` (stereo not shown) [compound 114, 1-(2-(1-(6-amino-5-chloropyrimidin-4-yl)piperidin-3-yl)thiazol-4-yl)-3-(2,4-difluoro-6-(pyrrolidin-1-yl)phenyl)urea] registered an IC50 of 100 to 999 nM.

Regarding `O=C(Nc1ccccc1)Nc1ncc(C2CCCN(c3ncnc4[nH]ccc34)C2)s1` (stereo not shown) [compound 115, 1-(5-(1-(7H-pyrrolo[2,3-d]pyrimidin-4-yl)piperidin-3-yl)thiazol-2-yl)-3-phenylurea], under setting [1], the IC50 was above 10000 nM. For `O=C(Nc1ccccc1)Nc1nc(C2CCCN(c3ncnc4[nH]ccc34)C2)cs1` (stereo not shown) [compound 116, 1-(4-(1-(7H-pyrrolo[2,3-d]pyrimidin-4-yl)piperidin-3-yl)thiazol-2-yl)-3-phenylurea], the IC50 was 1000 to 10000 nM. As to `O=C(Nc1ccccc1)Nc1cnc(C2CCCN(c3ncnc4[nH]ccc34)C2)s1` (stereo not shown) [compound 117, 1-(2-(1-(7H-pyrrolo[2,3-d]pyrimidin-4-yl)piperidin-3-yl)thiazol-5-yl)-3-phenylurea], the IC50 under setting [1] was above 10000 nM. `O=C(Nc1ccccc1)Nc1cccc(C2CCCN(c3ncnc4[nH]ccc34)C2)n1` (stereo not shown) [compound 118, 1-(6-(1-(7H-pyrrolo[2,3-d]pyrimidin-4-yl)piperidin-3-yl)pyridin-2-yl)-3-phenylurea] gave an IC50 of 1000 to 10000 nM.

Regarding `O=c1nc(Nc2cccc(C3CCCN(c4ncnc5[nH]ccc45)C3)c2)[nH]c2ccccc12` (stereo not shown) [compound 119, 2-(3-(1-(7H-pyrrolo[2,3-d]pyrimidin-4-yl)piperidin-3-yl)phenylamino)quinazolin-4(1H)-one], under setting [1], the IC50 is above 10000 nM. In turn, `O=c1nc(Nc2cccc(C3CCCN(c4ncnc5[nH]ccc45)C3)c2)[nH]c2c1CCCC2` (stereo not shown) [compound 120, 2-(3-(1-(7H-pyrrolo[2,3-d]pyrimidin-4-yl)piperidin-3-yl)phenylamino)-5,6,7,8-tetrahydroquinazolin-4(1H)-one] returned an IC50 of 1000 to 10000 nM. `CC(C)c1cc(=O)nc(Nc2cccc(C3CCCN(c4ncnc5[nH]ccc45)C3)c2)[nH]1` (stereo not shown) [compound 121, 2-(3-(1-(7H-pyrrolo[2,3-d]pyrimidin-4-yl)piperidin-3-yl)phenylamino)-6-isopropylpyrimidin-4(1H)-one] came in with an IC50 of 1000 to 10000 nM.

Turning to `Cc1cc(=O)nc(Nc2cccc(C3CCCN(c4ncnc5[nH]ccc45)C3)c2)[nH]1` (stereo not shown) [compound 122, 2-(3-(1-(7H-pyrrolo[2,3-d]pyrimidin-4-yl)piperidin-3-yl)phenylamino)-6-methylpyrimidin-4(1H)-one], under setting [1], the IC50 was above 10000 nM. The molecule `O=C(Nc1cccc([C@H]2CN(c3ncnc4[nH]ccc34)CC[C@H]2CO)c1)Nc1ccccc1N1CCCC1` [compound 123, 1-(3-((3S/R)-4-(hydroxymethyl)-1-(7H-pyrrolo[2,3-d]pyrimidin-4-yl)piperidin-3-yl)phenyl)-3-(2-(pyrrolidin-1-yl)phenyl)urea] came in with an IC50 of 100 to 999 nM. In turn, `O=C(Nc1cccc(C2CN(c3ncnc4[nH]ccc34)CCN2CCO)c1)Nc1ccccc1N1CCCC1` (stereo not shown) [compound 124, 1-(3-(1-(2-hydroxyethyl)-4-(7H-pyrrolo[2,3-d]pyrimidin-4-yl)piperazin-2-yl)phenyl)-3-(2-(pyrrolidin-1-yl)phenyl)urea] returned an IC50 of 100 to 999 nM. Same read-out and setting: the same measure for `O=C(Nc1ccccc1)Nc1cccc(C2CN(c3ncnc4[nH]ccc34)CCN2)c1` (stereo not shown) [compound 125, 1-(3-(4-(7H-pyrrolo[2,3-N]pyrimidin-4-yl)piperazin-2-yl)phenyl)-3-phenylurea]: 1000 to 10000 nM.

Take `CC(=O)N1CCN(c2ncnc3[nH]ccc23)CC1c1cccc(NC(=O)Nc2ccccc2)c1` (stereo not shown) [compound 127, 1-(3-(1-acetyl-4-(7H-pyrrolo[2,3-d]pyrimidin-4-yl)piperazin-2-yl)phenyl)-3-phenylurea]: under setting [1], the concentration for half-maximal inhibition (IC50) was above 10000 nM. On the same count and under the same terms, the same measure for `CS(=O)(=O)N1CCN(c2ncnc3[nH]ccc23)CC1c1cccc(NC(=O)Nc2ccccc2)c1` (stereo not shown) [compound 128, 1-(3-(1-(methylsulfonyl)-4-(7H-pyrrolo[2,3-d]pyrimidin-4-yl)piperazin-2-yl)phenyl)-3-phenylurea]: above 10000 nM. `CC(C)CN1CCN(c2ncnc3[nH]ccc23)CC1c1cccc(NC(=O)Nc2ccccc2)c1` (stereo not shown) [compound 129, 1-(3-(1-isobutyl-4-(7H-pyrrolo[2,3-d]pyrimidin-4-yl)piperazin-2-yl)phenyl)-3-phenylurea] registered an IC50 of 1000 to 10000 nM. Still for that read-out and setting: the same measure for `CC(C)c1ccccc1NC(=O)Nc1cccc(C2CN(c3ncnc4[nH]ccc34)CCN2CCO)c1` (stereo not shown) [compound 133, 1-(3-(1-(2-hydroxyethyl)-4-(7H-pyrrolo[2,3-d]pyrimidin-4-yl)piperazin-2-yl)phenyl)-3-(2-isopropylphenyl)urea]: 100 to 999 nM; for `O=C(Nc1cccc(C2CN(c3ncnc4[nH]ccc34)CCN2CCO)c1)Nc1c(Cl)cccc1Cl` (stereo not shown) [compound 134, 1-(2,6-Dichlorophenyl)-3-(3-(1-(2-hydroxyethyl)-4-(7H-pyrrolo[2,3-d]pyrimidin-4-yl)piperazin-2-yl)phenyl)urea]: 100 to 999 nM.

In the case of `O=C(Nc1cccc(C2CN(c3ncnc4[nH]ccc34)CCN2CCO)c1)Nc1c(F)cccc1N1CCCC1` (stereo not shown) [compound 135, 1-(2-Fluoro-6-(pyrrolidin-1-yl)phenyl)-3-(3-(1-(2-hydroxyethyl)-4-(7H-pyrrolo[2,3-d]pyrimidin-4-yl)piperazin-2-yl)phenyl)urea], the half-maximal inhibitory concentration (IC50) under setting [1] is below 100 nM. The same measure, in the same setting: the same measure for `CN(C(=O)Nc1ccccc1)c1cccc(C2CCCN(c3ncnc4[nH]ccc34)C2)c1` (stereo not shown) [compound 136, 1-(3-(1-(7H-Pyrrolo[2,3-d]pyrimidin-4-yl)piperidin-3-yl)phenyl)-1-methyl-3-phenylurea]: above 10000 nM. Take `c1ccc(Nc2cccc(C3CCCN(c4ncnc5[nH]ccc45)C3)c2)nc1` (stereo not shown) [compound 140, N-(3-(1-(7H-pyrrolo[2,3-d]pyrimidin-4-yl)piperidin-3-yl)phenyl)pyridin-2-amine]: the 50% inhibitory concentration (IC50) lay in the range of 1000 to 10000 nM. With `c1cnc(Nc2cccc(C3CCCN(c4ncnc5[nH]ccc45)C3)c2)nc1` (stereo not shown) [compound 141, N-(3-(1-(7H-pyrrolo[2,3-d]pyrimidin-4-yl)piperidin-3-yl)phenyl)pyrimidin-2-amine], the IC50 under setting [1] is above 10000 nM. Still for that read-out and setting: the figure for `FC(F)(F)c1ccc(Nc2cccc(C3CCCN(c4ncnc5[nH]ccc45)C3)c2)nc1` (stereo not shown) [compound 142, N-(3-(1-(7H-pyrrolo[2,3-d]pyrimidin-4-yl)piperidin-3-yl)phenyl)-5-(trifluoromethyl)pyridin-2-amine] is above 10000 nM.

In the case of `FC(F)(F)c1cccnc1Nc1cccc(C2CCCN(c3ncnc4[nH]ccc34)C2)c1` (stereo not shown) [compound 143, N-(3-(1-(7H-pyrrolo[2,3-d]pyrimidin-4-yl)piperidin-3-yl)phenyl)-3-(trifluoromethyl)pyridin-2-amine], under setting [1], the IC50 is above 10000 nM.

Molecule `N#Cc1c(N)ncnc1N1CCCC(c2ccc(OC(F)(F)F)c(NC(=O)C3CCCCC3)c2)C1` (stereo not shown) [compound 144, N-(5-(1-(6-amino-5-cyanopyrimidin-4-yl)piperidin-3-yl)-2-(trifluoromethoxy)phenyl)cyclohexanecarboxamide] registered an IC50 of 1000 to 10000 nM.

In the case of `N#Cc1c(N)ncnc1N1CCCC(c2ccc(OC(F)(F)F)c(NC(=O)c3ccccc3Cl)c2)C1` (stereo not shown) [compound 145], the IC50 was in the range of 100 to 999 nM. Consider `O=C(Nc1cccc(C2CCCN(c3ncnc4[nH]ccc34)C2)c1)Nc1c(F)cccc1N1CCCC1` (stereo not shown) [compound 146], for which the 50% inhibitory concentration (IC50) under setting [1] is below 100 nM. Turning to `O=C(Nc1cccc(C2CCCN(c3ncnc4[nH]ccc34)C2)c1)Nc1ccc(F)cc1N1CCCC1` (stereo not shown) [compound 147], under setting [1], the IC50 is below 100 nM.

Take `O=C(Nc1cccc(C2CCCN(c3ncnc4[nH]ccc34)C2)c1)Nc1ccccc1N1C[C@@H](O)[C@@H](O)C1` (stereo partly shown) [compound 148]: the IC50 under setting [1] was below 100 nM. The same measure, in the same setting: the figure for `O=C(Nc1cccc(C2CCCN(c3ncnc4[nH]ccc34)C2)c1)Nc1ccccc1N1CC[C@@H](O)C1` (stereo partly shown) [compound 149] is below 100 nM; for `O=C(Nc1cccc(C2CCCN(c3ncnc4[nH]ccc34)C2)c1)Nc1ccccc1N1C[C@H](O)[C@@H](O)C1` (stereo partly shown) [compound 150] it is below 100 nM; for `CC(C)c1ccccc1NC(=O)Nc1cccc(C2CCCN(c3ncnc4[nH]ccc34)C2)c1` (stereo not shown) [compound 151] it is below 100 nM. For the molecule `O=C(Nc1cccc(C2CCCN(c3ncnc4[nH]ccc34)C2)c1)Nc1ccccc1N1CCC[C@H]1CO` (stereo partly shown) [compound 152], under setting [1], the half-maximal inhibitory concentration (IC50) is below 100 nM. Same read-out and setting: the figure for `CC(C)c1cccc(C(C)C)c1NC(=O)Nc1cccc(C2CCCN(c3ncnc4[nH]ccc34)C2)c1` (stereo not shown) [compound 154] is below 100 nM; for `O=C(Nc1cccc(C2CCCN(c3ncnc4[nH]ccc34)C2)c1)Nc1ccccc1N1CC[C@H](O)C1` (stereo partly shown) [compound 155] it is below 100 nM. The same measure, in the same setting: the figure for `CC(C)(C)c1ccccc1NC(=O)Nc1cccc([C@H]2CCCN(c3ncnc4[nH]ccc34)C2)c1` [compound 156] is below 100 nM; for `CO[C@H]1CCN(c2ccccc2NC(=O)Nc2cccc(C3CCCN(c4ncnc5[nH]ccc45)C3)c2)C1` (stereo partly shown) [compound 157] it is below 100 nM.

Molecule `O=C(Nc1cccc(C2CCCN(c3ncnc4[nH]ccc34)C2)c1)Nc1ccccc1N1C[C@@H](O)[C@H](O)C1` (stereo partly shown) [compound 158] came in with an IC50 of 100 to 999 nM.
